Source: the supplement of paper PMC10307832

Legend:
Test in all cases: relative viability (nuclei count vs DMSO), 5 days (fraction); higher = more cells survive
[1] = compound: CCOc1cc2ncc(C#N)c(Nc3ccc(OCc4ccccn4)c(Cl)c3)c2cc1NC(=O)/C=C/CN(C)C [Neratinib] + CC(=O)Nc1cccc(-n2c(=O)n(C3CC3)c(=O)c3c(Nc4ccc(I)cc4F)n(C)c(=O)c(C)c32)c1 [Trametinib] (partner 0.02 µM)
Summary of the method: (§1)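 The day after seeding in 1536-well plates, lung cancer cell lines were treated by pin tool with a single drug, or with a fixed anchor-drug dose together with five library-drug doses (not always all listed) in √10 steps. After 5 days, a combined fix-and-stain solution (final 0.05% Triton X-100, 1% formaldehyde, 1 ug/ml Hoechst) was added. Nuclei counted on 4× images gave relative viability as treated counts over vehicle counts, reported as the median of duplicate plates.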

[2] = compound: CCOc1cc2ncc(C#N)c(Nc3ccc(OCc4ccccn4)c(Cl)c3)c2cc1NC(=O)/C=C/CN(C)C [Neratinib] + CS(=O)(=O)CCNCc1ccc(-c2ccc3ncnc(Nc4ccc(OCc5cccc(F)c5)c(Cl)c4)c3c2)o1 [Lapatinib] (partner 2 µM)
Summary of the method: as §1

[3] = compound: CCOc1cc2ncc(C#N)c(Nc3ccc(OCc4ccccn4)c(Cl)c3)c2cc1NC(=O)/C=C/CN(C)C [Neratinib] + O=C(c1cc(Cc2n[nH]c(=O)c3ccccc23)ccc1F)N1CCN(C(=O)C2CC2)CC1 [Olaparib] (partner 8 µM)
Summary of the method: as §1

[4] = compound: CCOc1cc2ncc(C#N)c(Nc3ccc(OCc4ccccn4)c(Cl)c3)c2cc1NC(=O)/C=C/CN(C)C [Neratinib] + N=C(N)NC(=N)NCCc1ccccc1 [Phenformin] (partner 250 µM)
Summary of the method: as §1

Cell Line: COR-L 105
- relative viability ([1]; first compound 0.01 µM): 0.49
- relative viability ([1]; first compound 0.03162 µM): 0.441
- relative viability ([1]; first compound 0.1 µM): 0.372
- relative viability ([1]; first compound 0.3162 µM): 0.32
- relative viability ([1]; first compound 1 µM): 0.4
- relative viability ([2]; first compound 0.01 µM): 0.36
- relative viability ([2]; first compound 0.03162 µM): 0.37
- relative viability ([2]; first compound 0.1 µM): 0.331
- relative viability ([2]; first compound 0.3162 µM): 0.377
- relative viability ([2]; first compound 1 µM): 0.32
- relative viability ([3]; first compound 0.01 µM): 0.641
- relative viability ([3]; first compound 0.1 µM): 0.506
- relative viability ([3]; first compound 0.3162 µM): 0.414
- relative viability ([3]; first compound 1 µM): 0.419
- relative viability ([4]; first compound 0.01 µM): 0.537
- relative viability ([4]; first compound 0.03162 µM): 0.467
- relative viability ([4]; first compound 0.1 µM): 0.304
- relative viability ([4]; first compound 0.3162 µM): 0.221
- relative viability ([4]; first compound 1 µM): 0.193

Cell Line: LK-2
- relative viability ([1]; first compound 0.01 µM): 0.948
- relative viability ([1]; first compound 0.03162 µM): 0.714
- relative viability ([1]; first compound 0.1 µM): 0.851
- relative viability ([1]; first compound 0.3162 µM): 0.501
- relative viability ([1]; first compound 1 µM): 0.34
- relative viability ([2]; first compound 0.01 µM): 1.28
- relative viability ([2]; first compound 0.03162 µM): 1.2
- relative viability ([2]; first compound 0.1 µM): 0.95
- relative viability ([2]; first compound 0.3162 µM): 0.664
- relative viability ([2]; first compound 1 µM): 0.578
- relative viability ([3]; first compound 0.01 µM): 0.941
- relative viability ([3]; first compound 0.03162 µM): 0.949
- relative viability ([3]; first compound 0.1 µM): 0.747
- relative viability ([3]; first compound 0.3162 µM): 0.553
- relative viability ([3]; first compound 1 µM): 0.433
- relative viability ([4]; first compound 0.01 µM): 0.467
- relative viability ([4]; first compound 0.03162 µM): 0.418
- relative viability ([4]; first compound 0.1 µM): 0.518
- relative viability ([4]; first compound 0.3162 µM): 0.287
- relative viability ([4]; first compound 1 µM): 0.318

Cell Line: PC-3 [JPC-3]
- relative viability ([1]; first compound 0.01 µM): 0.745
- relative viability ([1]; first compound 0.03162 µM): 0.831
- relative viability ([1]; first compound 0.1 µM): 0.629
- relative viability ([1]; first compound 0.3162 µM): 0.427
- relative viability ([1]; first compound 1 µM): 0.435
- relative viability ([2]; first compound 0.01 µM): 0.457
- relative viability ([2]; first compound 0.03162 µM): 0.433
- relative viability ([2]; first compound 0.1 µM): 0.455
- relative viability ([2]; first compound 0.3162 µM): 0.485
- relative viability ([2]; first compound 1 µM): 0.373
- relative viability ([3]; first compound 0.03162 µM): 1.29
- relative viability ([3]; first compound 0.1 µM): 0.964
- relative viability ([3]; first compound 0.3162 µM): 0.81
- relative viability ([3]; first compound 1 µM): 0.424
- relative viability ([4]; first compound 0.01 µM): 0.459
- relative viability ([4]; first compound 0.03162 µM): 0.497
- relative viability ([4]; first compound 0.1 µM): 0.432
- relative viability ([4]; first compound 0.3162 µM): 0.365
- relative viability ([4]; first compound 1 µM): 0.336

Cell Line: UMC-11
- relative viability ([1]; first compound 0.01 µM): 0.621
- relative viability ([1]; first compound 0.03162 µM): 0.879
- relative viability ([1]; first compound 0.1 µM): 0.673
- relative viability ([1]; first compound 0.3162 µM): 0.666
- relative viability ([1]; first compound 1 µM): 0.686
- relative viability ([2]; first compound 0.01 µM): 1.03
- relative viability ([2]; first compound 0.03162 µM): 1.11
- relative viability ([2]; first compound 0.1 µM): 0.604
- relative viability ([2]; first compound 0.3162 µM): 0.841
- relative viability ([2]; first compound 1 µM): 0.745
- relative viability ([3]; first compound 0.01 µM): 0.362
- relative viability ([3]; first compound 0.03162 µM): 0.388
- relative viability ([3]; first compound 0.1 µM): 0.33
- relative viability ([3]; first compound 0.3162 µM): 0.361
- relative viability ([3]; first compound 1 µM): 0.299
- relative viability ([4]; first compound 0.01 µM): 0.333
- relative viability ([4]; first compound 0.03162 µM): 0.328
- relative viability ([4]; first compound 0.1 µM): 0.32
- relative viability ([4]; first compound 0.3162 µM): 0.293
- relative viability ([4]; first compound 1 µM): 0.275

Cell Line: NCI-H2085
- relative viability ([1]; first compound 0.01 µM): 0.605
- relative viability ([1]; first compound 0.03162 µM): 0.698
- relative viability ([1]; first compound 0.1 µM): 0.545
- relative viability ([1]; first compound 0.3162 µM): 0.397
- relative viability ([1]; first compound 1 µM): 0.315
- relative viability ([2]; first compound 0.01 µM): 0.76
- relative viability ([2]; first compound 0.03162 µM): 0.887
- relative viability ([2]; first compound 0.1 µM): 0.767
- relative viability ([2]; first compound 0.3162 µM): 0.71
- relative viability ([2]; first compound 1 µM): 0.699
- relative viability ([3]; first compound 0.01 µM): 0.755
- relative viability ([3]; first compound 0.03162 µM): 0.8
- relative viability ([3]; first compound 0.1 µM): 0.729
- relative viability ([3]; first compound 0.3162 µM): 0.644
- relative viability ([3]; first compound 1 µM): 0.639
- relative viability ([4]; first compound 0.01 µM): 0.795
- relative viability ([4]; first compound 0.03162 µM): 0.683
- relative viability ([4]; first compound 0.1 µM): 0.708
- relative viability ([4]; first compound 0.3162 µM): 0.567
- relative viability ([4]; first compound 1 µM): 0.437

Cell Line: NCI-H441
- relative viability ([1]; first compound 0.01 µM): 0.509
- relative viability ([1]; first compound 0.03162 µM): 0.428
- relative viability ([1]; first compound 0.1 µM): 0.356
- relative viability ([1]; first compound 0.3162 µM): 0.332
- relative viability ([1]; first compound 1 µM): 0.245
- relative viability ([3]; first compound 0.01 µM): 0.57
- relative viability ([3]; first compound 0.03162 µM): 0.438
- relative viability ([3]; first compound 0.1 µM): 0.488
- relative viability ([3]; first compound 0.3162 µM): 0.48
- relative viability ([3]; first compound 1 µM): 0.417
- relative viability ([4]; first compound 0.01 µM): 1.04
- relative viability ([4]; first compound 0.03162 µM): 0.82
- relative viability ([4]; first compound 0.1 µM): 0.94
- relative viability ([4]; first compound 0.3162 µM): 0.705
- relative viability ([4]; first compound 1 µM): 0.45

Cell Line: NCI-H1666
- relative viability ([1]; first compound 0.01 µM): 0.868
- relative viability ([1]; first compound 0.03162 µM): 0.815
- relative viability ([1]; first compound 0.1 µM): 0.712
- relative viability ([1]; first compound 0.3162 µM): 0.637
- relative viability ([1]; first compound 1 µM): 0.78
- relative viability ([2]; first compound 0.01 µM): 1.02
- relative viability ([2]; first compound 0.03162 µM): 0.769
- relative viability ([2]; first compound 0.1 µM): 0.546
- relative viability ([2]; first compound 0.3162 µM): 0.673
- relative viability ([2]; first compound 1 µM): 0.596
- relative viability ([3]; first compound 0.01 µM): 0.751
- relative viability ([3]; first compound 0.03162 µM): 0.806
- relative viability ([3]; first compound 0.1 µM): 0.675
- relative viability ([3]; first compound 0.3162 µM): 0.666
- relative viability ([3]; first compound 1 µM): 0.806
- relative viability ([4]; first compound 0.01 µM): 0.616
- relative viability ([4]; first compound 0.03162 µM): 0.573
- relative viability ([4]; first compound 0.1 µM): 0.519
- relative viability ([4]; first compound 0.3162 µM): 0.54
- relative viability ([4]; first compound 1 µM): 0.593
